Our source for the IC50 values is ChEMBL document CHEMBL3351981, “Eleganketal A, a highly oxygenated dibenzospiroketal from the marine-derived fungus Spicaria elegans KLA03” (J Nat Prod, 2014).

The term IC50 denotes the point on the concentration scale where inhibition reaches its midpoint.

Assay [1] can be described thus: Cytotoxicity against human HL60 cells. The assay is classed as functional, cell-based. Particulars: HL-60.
The next assay concerns K562. The assay is described as follows: Cytotoxicity against human K562 cells. Format: functional, cell-based.
A further assay relates to Influenza A virus. Briefly: Antiviral activity against influenza A virus (A/Puerto Rico/8/34(H1N1)) infected in MDCK cells assessed as inhibition of virus-induced cytopathic effect after 48 hrs by crystal violet staining assay. Format: functional, organism-based. The following applies: A/Puerto Rico/8/1934(H1N1). (In general: Damage to the host cells serves as the signal in cytopathic effect assays.)

Regarding `COc1c(C)c2c(c(OC)c1OC)C(=O)[C@]1(OC2)OCc2c(C)c(OC)c(OC)c(OC)c21`, the IC50 (in assay [1]; with K562) was > 50 µM in each case.

`COc1c(C)c2c(c(OC)c1OC)C(=O)[C@@]1(OC2)OCc2c(C)c(OC)c(OC)c(OC)c21`: the IC50 in assay [1] is > 50 µM; in the assay on Influenza A virus, 149 µM; in the assay with K562 it was > 50 µM.

As to `COc1c(C)c2c(c(OC)c1OC)C(=O)C1(OC2)OCc2c(C)c(OC)c(OC)c(OC)c21` (racemic), the IC50 (in assay [1]; in the assay with K562) was > 50 µM each time.

As to `NC(=O)c1ncn([C@@H]2O[C@H](CO)[C@@H](O)[C@H]2O)n1` [RIBAVIRIN], in the assay with Influenza A virus, the IC50 is 101 µM.
